Where “and” joins values, the source holds several entries; their conditions need not be identical. Equal entries are not always repeated. Entries after “also recorded” stand apart in the source; their conditions may differ. Where two headings read alike, the source gives them in different places.
Legend:
[1] = tested on: nicotinic receptors (rat brain membranes); assay type: binding
[2] = tested on: nicotinic receptors (rat brain membranes)
rats [3] = details: rat, in vivo
rats [4] = details: rat, in vivo; remark: listed apart in the source
[5] = tested on: rat liver microsomal system; details: cited from earlier work
[6] = molecular target: nicotinic receptors (rat brain membranes); assay type: binding; details: pH 7; read-out: [3H]-MCC IC50
[7] = molecular target: nicotinic receptors (rat brain membranes); assay type: binding; details: for IC50: read-out: 3H-Nicotine Binding IC50
[8] = molecular target: nicotinic receptors (rat brain membranes); details: read-out: 3H-MCC Binding IC50
rats or mice = details: in vivo; cited from earlier work
rats [9] = tested on: rats; set-up: species or system Sprague-Dawley male rats; Blockade of (nicotine-induced prostration) EC50: unit not given here; details: rat, in vivo
rats [10] = details: rat, in vivo; remark: listed apart in the source
rats [11] = details: rat, in vivo; remark: listed apart in the source
rats [12] = details: rat, in vivo; remark: listed apart in the source
rats [13] = assay: animal or person; details: Rattus norvegicus, ip, 7 min, read-out: % Antagonism (seizures)
rats [14] = assay: animal or person; details: Rattus norvegicus, iv, read-out: Antagonistic dose needed to completely block elevation in systolic blood pressure
rat brain = details: cited from earlier work
[15] = in vivo; cited from earlier work

Question: What does the source list for CN1CCCC1c1cccnc1 (single isomer, unassigned; (-)) [[^3 H]-nicotine, (-)-[^3 H]-nicotine]?
Answer: displaceability of [3H]-nicotine binding by muscarinic antagonists [1]: not displaceable by muscarinic cholinergic antagonists; Bmax of higher affinity site, [3H]-nicotine [2]: 5e-15 mol/mg; Bmax of lower affinity site, [3H]-nicotine [2]: 1e-14 mol/mg and 2e-14 mol/mg

Question: For CNC(=O)OCC[N+](C)(C)C [MCC, Methylcarbamylcholine], which “increase in psychotropic potency after quaternization of DMAE methyl carbamate” value (rats [3]) is on record?
Answer: over 10 fold

Question: What about the “potency relative to (-)-nicotine (prostration)” value (rats [3]) of the same compound?
Answer: 1/5

Question: And the “Prostration EC50” value (rats [4])?
Answer: 10

Question: And the duration of prostration (rats [4])?
Answer: over 20 min

Question: And the metabolism [5]?
Answer: metabolized by a rat liver microsomal system

Question: With C[N+]1(C)CCCC1c1cccnc1 (centres unmarked) [N'--methyl nicotonium] as the compound, how does the IC50 ([1]; pH 7, read-out: [3H]-nicotine IC50) read?
Answer: 7 µM

Question: And the IC50 [6]?
Answer: 4 µM

Question: What about the “decrease in psychotropic potency with quaternization of nicotine” value (rats [3]) of the same compound?
Answer: 50 fold

Question: What about the IC50 ([7]; pH 7.5) of the same compound?
Answer: 7 µM

Question: And the IC50 ([8]; pH 7.5)?
Answer: 4000 nM

Question: And the “Prostration EC50” value (rats [4])?
Answer: 100

Question: And the “potency in producing seizures and mortality, in words” value (rats or mice)?
Answer: more potent than nicotine in producing seizures and mortality

Question: With C[N+](C)(C)CCOC(=O)c1ccccc1 [TMAE benzoate, benzoylcholine] as the compound, how does the “Blockade of (nicotine-induced prostration) EC50” value (rats [9]) read?
Answer: 10

Question: What about the “times as effective as the DMAE ester” value (rats [9]) of the same compound?
Answer: 5 times

Question: What about the Seizures (rats [10]) of the same compound?
Answer: 1/8

Question: What about the “blockade of seizure activity” value (rats [10]) of the same compound?
Answer: 78%

Question: And the “% Antagonism (protection against nicotine mortality)” value (rats [11])?
Answer: 63%

Question: What about the Mortality (rats [11]) of the same compound?
Answer: 3/10

Question: What about the “Antagonistic dose needed to completely block elevation in systolic blood pressure” value (rats [12]) of the same compound?
Answer: 1.5 ± 0.3 mg/kg

Question: What about the responders at 25 mg/kg (rats [13]) of the same compound?
Answer: 78%

Question: What about the ED100 (rats [14]) of the same compound?
Answer: 1.5 mg/kg

Question: Which “displaceability of [3H]-acetylcholine binding by muscarinic antagonists” value (rat brain) does the source give for CC(=O)OCC[N+](C)(C)C [[^3 H]-acetylcholine] here?
Answer: displaceable by low concentrations of muscarinic antagonists

Question: With CN1[C@@H](CC(=O)c2ccccc2)CCC[C@H]1C[C@H](O)c1ccccc1 [α-lobeline, reference compound] as the compound, how does the “binding affinity for nicotine receptor, in words” value [7] read?
Answer: even greater affinity than (-)-nicotine for the receptor; also recorded: very high affinity for brain nicotine receptors

Question: What about the IC50 [7] of the same compound?
Answer: 0.005 µM

Question: And the IC50 [8]?
Answer: 0.7 nM

Question: And the “Blockade of (nicotine-induced prostration) EC50” value (rats [9])?
Answer: 10

Question: What about the “blockade of nicotine-induced prostration / antagonism, in words” value (rats [9]) of the same compound?
Answer: most effective antagonist

Question: What about the Seizures (rats [10]) of the same compound?
Answer: 1/8

Question: What about the “protection against seizures, in words” value (rats [10]) of the same compound?
Answer: complete protection against seizures

Question: And the “% Antagonism (reduction of nicotine mortality)” value (rats [11])?
Answer: 75%

Question: What about the Mortality (rats [11]) of the same compound?
Answer: 2/10

Question: And the “Antagonistic dose needed to completely block elevation in systolic blood pressure” value (rats [12])?
Answer: 0.2 ± 0.05 mg/kg

Question: What about the “pharmacologic effects, in words” value [15] of the same compound?
Answer: suppress the desire for tobacco; also recorded: hypertensive action resulting from the stimulation of the carotid body; also recorded: broncio-construction; also recorded: brochoarrythmia

Question: What about the responders at 5 mg/kg (rats [13]) of the same compound?
Answer: 0%

Question: What about the ED100 (rats [14]) of the same compound?
Answer: 0.2 mg/kg
